Article PMC5143673 (Innate immunity, 2016)
Non-standard residues stand in square brackets, D forms with d. No end group written: not given here. hCit = NC(=O)NCCCC[C@H](N)C(=O)O

What was measured:
[1] = target: N-HisTag containing ApoA1 (NH-ApoA1) (UniProt P02647); assay: SPR
Sequence of UniProt P02647 (P02647 19-267): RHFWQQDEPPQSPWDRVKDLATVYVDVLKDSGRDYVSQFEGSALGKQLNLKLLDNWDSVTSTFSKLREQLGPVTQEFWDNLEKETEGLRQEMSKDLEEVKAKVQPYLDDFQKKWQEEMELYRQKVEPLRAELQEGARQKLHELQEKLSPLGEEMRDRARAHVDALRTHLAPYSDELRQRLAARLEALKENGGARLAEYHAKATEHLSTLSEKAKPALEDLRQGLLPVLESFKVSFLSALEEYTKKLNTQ

| Molecule | capacity to lyse neutrophils and erythrocytes (neutrophils) | fold lower affinity than native LL-37 [1] [fold] |
| --- | --- | --- |
| LLGDFFRKSKEKIGKEFKRIVQRIKDFLRNLVPRTES [LL-37] | ability of LL-37^C8 and LL-37^C12,15 to lyse neutrophils and erythrocytes was different |  |
| LLGDFFRKSKE[hCit]IG[hCit]EFKRIVQRIKDFLRNLVPRTES [LL-37^C12,15 (LL-37 carbamylated on Lys-12 and Lys-15)] |  | 3 |
